Assay results published in PubChem BioAssay AID1963986 (Molecular Pharmacology Branch, DTP, NCI, 2024).

System: 171881-019-R-J1-PDC tumor spheroid viability
Assay: Anticancer human tumor 171881-019-R-J1-PDC patient-derived invasive breast carcinoma cell line growth inhibition [PI3K]
Details: spheroids with HUVEC and MSC; for IC50: curve of first compound; for viability, T/C: stronger effect = lower value
Description: Combinatorial screen of targeted agents with the PI3K inhibitors inavolisib, alpelisib, duvelisib, and copanlisib in multi-cell type tumor spheroids
A high-throughput screen of multi-cell type tumor spheroids was designed to identify active combinations of targeted small molecules and PI3K pathway inhibitors. Complex spheroids include a stromal component modeled by human endothelial cells (HUVEC) and fibroblasts modeled by human mesenchymal stem cells (MSCs). The concentration ranges selected for each drug and investigational agent were based upon clinically achievable concentrations if the clinical Cmax of the agent was known.
Compounds. The drugs and investigational agents: inavolisib (NSC800729), alpelisib (NSC765974), duvelisib (NSC772469), copanlisib (NSC816437), ipatasertib (NSC767898), afuresertib (NSC778305), talazoparib (NSC767125), sapanisertib (NSC764658), selumetinib (NSC741078), tovorafenib (DAY101, NSC766906), vemurafenib (NSC761431), ravoxertinib (NSC781343), sotorasib (NSC818433), MRTX1133 (NSC 836407), abemaciclib (NSC 768073), palbociclib (NSC758247), venetoclax (NSC 766270), SY5609 (NSC837396), enzalutamide (NSC755605), and darolutamide (NSC825331), were obtained from the National Cancer Institute (NCI) Developmental Therapeutics Program Chemical Repository. The FDA-approved anticancer drug set is available from the NCI Developmental Therapeutics Program. […] The stock solutions were prepared in dimethyl sulfoxide (DMSO, Sigma-Aldrich, St. Louis, MO, cat. D2650) at 800-fold the tested concentration and stored at -70 degrees C prior to their use. All drugs and investigational agents were tested over a range starting from a high concentration at or near the clinical Cmax and decreasing in half-log increments. If the clinical Cmax for an agent had not been determined, the highest concentration tested was 10 microM.
Cell Culture. All cells were maintained in an incubator at 37 degrees C and 5% CO2 with 95% humidity. The PDC lines were cultured according to standard operating procedures established by the NCI PDMR (https://pdmr.cancer.gov/sops/default.htm). All PDCs were thawed and cultured in Matrigel-coated flasks prepared with a working solution of 1X Ham's F-12 nutrient mix, without supplementation (Invitrogen, Waltham, MA, cat. 11765054), 100 U/mL penicillin-streptomycin (Invitrogen, cat. 15140122), and 2.5% Matrigel (Corning Inc., Corning, NY, cat. 354248) for the first three passages. The 354836-022-R-J1-PDC, 475296-252-R-J1-PDC, and 997726-040-R-J2-PDC lines were cultured in 6A media, which includes advanced DMEM/F-12 (Thermo Fisher Scientific, cat. 12634028), 10 mM HEPES (Thermo Fisher Scientific, cat. 15630080), 1X GlutaMAX supplement (Thermo Fisher Scientific, cat. 35050061), 0.1 mg/mL primocin (InvivoGen, San Diego, CA, cat. ant-pm-2), 10% defined fetal bovine serum, heat inactivated (HyClone Laboratories Inc., Logan, UT, cat. SH30070.03HI), 50% L-WRN conditioned media (ATCC, cat. CRL-3276), 1.25 mM N-Acetyl-L-cysteine (Sigma-Aldrich, cat. A9165), 10 mM nicotinamide (Sigma-Aldrich, cat. N0636), 1X B-27 supplement (Thermo Fisher Scientific, cat. 17504044), 1X N-2 supplement (Thermo Fisher Scientific, cat. 17502048), and 10 microM Y-27632 dihydrochloride (Tocris Bioscience, Bristol, United Kingdom, cat. 1254). The 624824-186-R-J2-PDC line was cultured in 6C/Colon 1B media, which includes all 6A media components plus 50 ng/mL human EGF recombinant protein (Thermo Fisher Scientific, cat. PHG0311). […]
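Also: spheroids exposed to compound for 7 days before viability read.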
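For viability, T/C in this document: 100% = DMSO vehicle-treated spheroids.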

Question: How did the IC50 (second compound 0.00316 µM) turn out when `CC(C)n1nc(-c2ccc3oc(N)nc3c2)c2c(N)ncnc21` + CC(Nc1ccc2c(c1)OCCn1cc(N3C(=O)OCC3C(F)F)nc1-2)C(N)=O was run?
Answer: 9.16 nM

Question: What about the IC50 (second compound 0.01 µM) of the same compound?
Answer: 4.01 nM

Question: And the IC50 (second compound 0.0316 µM)?
Answer: 1.36 nM

Question: What about the IC50 (second compound 0.1 µM) of the same compound?
Answer: < 0.316 nM

Question: What about the IC50 (second compound 0.316 µM) of the same compound?
Answer: < 0.316 nM

Question: And the IC50 (second compound 1 µM)?
Answer: < 0.316 nM

Question: What about the viability, T/C (second compound 0.00316 µM, first compound 0.000316 µM) of the same compound?
Answer: 80.2%

Question: And the viability, T/C (second compound 0.00316 µM, first compound 0.001 µM)?
Answer: 76.2%

Question: What about the viability, T/C (second compound 0.00316 µM, first compound 0.00316 µM) of the same compound?
Answer: 69.5%

Question: What about the viability, T/C (second compound 0.00316 µM, first compound 0.01 µM) of the same compound?
Answer: 49.4%

Question: What about the viability, T/C (second compound 0.00316 µM, first compound 0.0316 µM) of the same compound?
Answer: 17.4%

Question: What about the viability, T/C (second compound 0.00316 µM, first compound 0.1 µM) of the same compound?
Answer: 4.49%

Question: What about the viability, T/C (second compound 0.01 µM, first compound 0.000316 µM) of the same compound?
Answer: 71.7%

Question: And the viability, T/C (second compound 0.01 µM, first compound 0.001 µM)?
Answer: 69.9%

Question: What about the viability, T/C (second compound 0.01 µM, first compound 0.00316 µM) of the same compound?
Answer: 49.7%

Question: And the viability, T/C (second compound 0.01 µM, first compound 0.01 µM)?
Answer: 38.5%

Question: And the viability, T/C (second compound 0.01 µM, first compound 0.0316 µM)?
Answer: 12.6%

Question: What about the viability, T/C (second compound 0.01 µM, first compound 0.1 µM) of the same compound?
Answer: 4.27%

Question: What about the viability, T/C (second compound 0.0316 µM, first compound 0.000316 µM) of the same compound?
Answer: 58.5%

Question: What about the viability, T/C (second compound 0.0316 µM, first compound 0.001 µM) of the same compound?
Answer: 50.9%

Question: What about the viability, T/C (second compound 0.0316 µM, first compound 0.00316 µM) of the same compound?
Answer: 42.9%

Question: And the viability, T/C (second compound 0.0316 µM, first compound 0.01 µM)?
Answer: 25.3%

Question: And the viability, T/C (second compound 0.0316 µM, first compound 0.0316 µM)?
Answer: 8.97%

Question: What about the viability, T/C (second compound 0.0316 µM, first compound 0.1 µM) of the same compound?
Answer: 3.7%

Question: What about the viability, T/C (second compound 0.1 µM, first compound 0.000316 µM) of the same compound?
Answer: 43.2%

Question: What about the viability, T/C (second compound 0.1 µM, first compound 0.001 µM) of the same compound?
Answer: 38.6%

Question: And the viability, T/C (second compound 0.1 µM, first compound 0.00316 µM)?
Answer: 28.8%

Question: What about the viability, T/C (second compound 0.1 µM, first compound 0.01 µM) of the same compound?
Answer: 13.3%

Question: What about the viability, T/C (second compound 0.1 µM, first compound 0.0316 µM) of the same compound?
Answer: 6.55%

Question: What about the viability, T/C (second compound 0.1 µM, first compound 0.1 µM) of the same compound?
Answer: 3.2%

Question: What about the viability, T/C (second compound 0.316 µM, first compound 0.000316 µM) of the same compound?
Answer: 26.6%

Question: And the viability, T/C (second compound 0.316 µM, first compound 0.001 µM)?
Answer: 25.2%

Question: What about the viability, T/C (second compound 0.316 µM, first compound 0.00316 µM) of the same compound?
Answer: 17.7%

Question: And the viability, T/C (second compound 0.316 µM, first compound 0.01 µM)?
Answer: 8.83%

Question: And the viability, T/C (second compound 0.316 µM, first compound 0.0316 µM)?
Answer: 4.95%

Question: What about the viability, T/C (second compound 0.316 µM, first compound 0.1 µM) of the same compound?
Answer: 2.96%

Question: And the viability, T/C (second compound 1 µM, first compound 0.000316 µM)?
Answer: 18.8%

Question: And the viability, T/C (second compound 1 µM, first compound 0.001 µM)?
Answer: 19.5%

Question: And the viability, T/C (second compound 1 µM, first compound 0.00316 µM)?
Answer: 12.8%

Question: And the viability, T/C (second compound 1 µM, first compound 0.01 µM)?
Answer: 6.3%

Question: And the viability, T/C (second compound 1 µM, first compound 0.0316 µM)?
Answer: 4.24%

Question: What about the viability, T/C (second compound 1 µM, first compound 0.1 µM) of the same compound?
Answer: 2.61%
